Among the test systems are SR leukemia; A498 renal; MALME-3M melanoma; HCC-2998 colon; HCT-116 colon; RPMI-8226 leukemia; KM12 colon; OVCAR-3 ovarian; UO-31 renal; SN12C renal.
Assay in all cases: DTP human tumour cell line panel, 48 h

One may read the GI50 as the concentration giving 50% growth inhibition. One may read the TGI as the concentration at which net growth stops. A high value points to less potent growth arrest.

Each structure is given as a SMILES string. Where “and” joins values, the source holds several entries; their conditions need not be identical. Equal entries are not always repeated.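 Where inhibition never reached the appropriate level, the endpoint shown equals the highest concentration tested. Otherwise, values were interpolated linearly from a five-concentration, 48-hour dose response in 96-well plates. Abbreviation: GI50, concentration required for 50% inhibition of growth. TGI is the concentration that stops growth completely.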 Where only a bound is given, the exact number is not on record here.

Consider `CCN1C(=O)N(CC)C2C1NN=c1s/c(=C\c3ccccn3)c(=O)n12` (stereo not given), for which the GI50 is 0.455 µM in the assay with SR leukemia; 0.184 µM in the assay with A498 renal; 1.63 µM with MALME-3M melanoma; 3.17 µM in the assay on HCC-2998 colon; 0.825 µM with HCT-116 colon; 1.71 µM in the assay on RPMI-8226 leukemia. In addition, the GI50 with KM12 colon is 1.29 µM; in the assay with OVCAR-3 ovarian it was 0.403 µM; in the assay on UO-31 renal, 2.51 µM; in the assay on SN12C renal, 5.29 µM. Besides, the TGI with SR leukemia is > 100 µM; in the assay with A498 renal it was 2.74 µM; in the assay on MALME-3M melanoma it was > 100 µM; with HCC-2998 colon, > 100 µM; in the assay with HCT-116 colon it was > 100 µM; in the assay with RPMI-8226 leukemia it was > 100 µM. Further, the TGI was > 100 µM with KM12 colon, 2.2 µM in the assay on OVCAR-3 ovarian, > 100 µM with UO-31 renal and > 100 µM in the assay on SN12C renal.
In the case of `O=C(Nc1ccc(Oc2cccc(F)c2)c(Cl)c1)c1cnccn1`, the GI50 in the assay with SR leukemia was 0.242 µM; with A498 renal, 3.77 µM; in the assay on MALME-3M melanoma, 3.03 µM; in the assay with HCC-2998 colon, 6.04 µM; in the assay on HCT-116 colon it was 0.596 µM; with RPMI-8226 leukemia, 1.79 µM. For the same molecule, the GI50 in the assay with KM12 colon was 0.357 µM; in the assay on OVCAR-3 ovarian it was 1 µM; with UO-31 renal it was 2.93 µM; in the assay with SN12C renal, 3.6 µM. Also, the TGI with SR leukemia is > 50 µM; in the assay on A498 renal, 43.3 µM; in the assay with MALME-3M melanoma it was > 50 µM; in the assay with HCC-2998 colon it was > 50 µM; in the assay on HCT-116 colon, > 50 µM; with RPMI-8226 leukemia, > 50 µM. Further, the TGI in the assay on KM12 colon is > 50 µM; with OVCAR-3 ovarian it was 5.15 µM; with UO-31 renal, > 50 µM; in the assay with SN12C renal it was > 50 µM.
On to `Cc1ccc(C(=O)NC2CCC2)cc1-c1ccc(C(=O)NCC2CC2)cc1`, for which the GI50 in the assay on SR leukemia is > 25 µM; in the assay on A498 renal, 25 µM; in the assay on MALME-3M melanoma, > 25 µM; in the assay on HCC-2998 colon, > 25 µM; with HCT-116 colon, > 25 µM; in the assay on RPMI-8226 leukemia, > 25 µM. Also, the GI50 with KM12 colon, with OVCAR-3 ovarian, in the assay with UO-31 renal and in the assay on SN12C renal was > 25 µM throughout. Moreover, the TGI with SR leukemia, with A498 renal, in the assay with MALME-3M melanoma, with HCC-2998 colon, in the assay on HCT-116 colon and in the assay on RPMI-8226 leukemia was > 25 µM in each case. In addition, the TGI in the assay with KM12 colon, in the assay with OVCAR-3 ovarian, in the assay with UO-31 renal and in the assay on SN12C renal was > 25 µM each time.
On to `c1ccc2[nH]c(-c3cc(-c4ccc5c(c4)OCO5)n[nH]3)nc2c1`, for which the GI50 in the assay with SR leukemia is 3.37 µM; in the assay on A498 renal it was 1.7 µM; with MALME-3M melanoma, 2.33 µM; with HCC-2998 colon, 3.74 µM; in the assay on HCT-116 colon, 6.36 µM; with RPMI-8226 leukemia, 1.14 µM. In addition, the GI50 is 1.75 µM with KM12 colon, 3.21 µM in the assay with OVCAR-3 ovarian, 3.98 µM with UO-31 renal and 3.73 µM in the assay with SN12C renal. In addition, the TGI in the assay with SR leukemia was 16.8 µM; in the assay with A498 renal, 12.8 µM; in the assay with MALME-3M melanoma, 13.2 µM; with HCC-2998 colon it was 14 µM; in the assay on HCT-116 colon it was 25.4 µM; in the assay with RPMI-8226 leukemia it was 7.16 µM. For the same molecule, the TGI with KM12 colon was 13.2 µM; in the assay on OVCAR-3 ovarian it was 14.6 µM; in the assay with UO-31 renal, 16.1 µM; in the assay on SN12C renal, 21.3 µM.
As for `NC(=O)c1ccc(-c2nc(-c3ccc4c(c3)OCO4)c(-c3ccccn3)[nH]2)cc1`, the GI50 in the assay on SR leukemia was > 25 µM and 20.4 µM; in the assay with A498 renal, > 25 µM and 27.2 µM; in the assay on MALME-3M melanoma it was > 25 µM and 38.2 µM; in the assay with HCC-2998 colon, > 25 µM and 30.9 µM; in the assay with HCT-116 colon, > 25 µM and 30.4 µM; in the assay with RPMI-8226 leukemia it was 24.3 µM and 20.7 µM. The GI50 in the assay on KM12 colon is > 25 µM and 35.7 µM; in the assay on OVCAR-3 ovarian, > 25 µM and 35.3 µM; in the assay with UO-31 renal it was > 25 µM and 32.3 µM; in the assay on SN12C renal, > 25 µM and 42.2 µM. For the same molecule, the TGI in the assay on SR leukemia was > 100 µM; in the assay on A498 renal, > 79.3 µM; in the assay on MALME-3M melanoma, > 100 µM; with HCC-2998 colon, > 100 µM; in the assay on HCT-116 colon it was > 100 µM; in the assay on RPMI-8226 leukemia it was > 69.6 µM. The TGI in the assay on KM12 colon, in the assay on OVCAR-3 ovarian, in the assay with UO-31 renal and with SN12C renal was > 100 µM in each case.
For the molecule `O=C1NOC(c2ccc(O)cc2)(c2ccc(O)cc2)c2ccccc21`, the GI50 in the assay with SR leukemia, in the assay on A498 renal, in the assay with MALME-3M melanoma, with HCC-2998 colon, with HCT-116 colon and in the assay with RPMI-8226 leukemia was > 100 µM throughout. For the same molecule, the GI50 in the assay on KM12 colon, in the assay on OVCAR-3 ovarian, with UO-31 renal and in the assay with SN12C renal was > 100 µM each time. Further, the TGI in the assay on SR leukemia, in the assay with A498 renal, with MALME-3M melanoma, with HCC-2998 colon, in the assay on HCT-116 colon and with RPMI-8226 leukemia was > 100 µM each time. Further, the TGI in the assay on KM12 colon, in the assay with OVCAR-3 ovarian, in the assay with UO-31 renal and in the assay with SN12C renal was > 100 µM in each case.
Consider `O=C(O)c1nc(-c2ccc(Cl)c(Cl)c2)nc2ccc(Cl)cc12`, for which the TGI with SR leukemia, in the assay with A498 renal, with MALME-3M melanoma, with HCC-2998 colon, in the assay with HCT-116 colon and in the assay on RPMI-8226 leukemia was > 100 µM each time. The total growth inhibition concentration (TGI) with KM12 colon, in the assay with OVCAR-3 ovarian, in the assay with UO-31 renal and in the assay on SN12C renal was > 100 µM each time.
For `C#CCNCCN1C(=O)c2ccc3c4c(ccc(c24)C1=O)C(=O)N(CCNCC#C)C3=O`, the GI50 in the assay with SR leukemia was 4.53 µM; in the assay with A498 renal, 7.14 µM; in the assay on MALME-3M melanoma, 0.903 µM; in the assay with HCC-2998 colon it was 2.49 µM; with HCT-116 colon, 1.75 µM; in the assay with RPMI-8226 leukemia it was 10.6 µM. For the same molecule, the GI50 in the assay on KM12 colon was 3.35 µM; with OVCAR-3 ovarian, 1.52 µM; in the assay with UO-31 renal, 3.09 µM; with SN12C renal, 2.62 µM. In addition, the TGI stood at 29.8 µM with SR leukemia; 14.1 µM with A498 renal; 3.14 µM in the assay on MALME-3M melanoma; 10 µM in the assay with HCC-2998 colon; 11.1 µM in the assay on HCT-116 colon; 43.2 µM in the assay with RPMI-8226 leukemia. In addition, the TGI with KM12 colon is 11.4 µM; with OVCAR-3 ovarian, 4.22 µM; in the assay with UO-31 renal, 12.3 µM; with SN12C renal, 9.32 µM.
On to `N#CSCc1ccc(Cl)c(CSC#N)c1`, for which the 50% growth inhibitory concentration (GI50) with SR leukemia was 0.0642 µM; in the assay with A498 renal, 0.273 µM; with MALME-3M melanoma it was 9.8 µM; in the assay with HCC-2998 colon, 6.61 µM; in the assay on HCT-116 colon, 0.0379 µM; in the assay with RPMI-8226 leukemia, 0.186 µM. Besides, the GI50 is 0.545 µM in the assay with KM12 colon, 0.165 µM in the assay with OVCAR-3 ovarian, 0.154 µM in the assay on UO-31 renal and 0.482 µM in the assay on SN12C renal. For the same molecule, the TGI in the assay on SR leukemia is 19.2 µM; in the assay on A498 renal it was 4.04 µM; with MALME-3M melanoma, 37.8 µM; in the assay with HCC-2998 colon, 34.5 µM; in the assay on HCT-116 colon it was 14.8 µM; with RPMI-8226 leukemia, 28.1 µM. The TGI was > 41.9 µM in the assay on KM12 colon, 18.1 µM in the assay on OVCAR-3 ovarian, 12.8 µM with UO-31 renal and 40.7 µM with SN12C renal.
As for `CN1CCc2[nH]nc(-c3n[nH]c4c3CN(C)CC4)c2C1`, the TGI in the assay on SR leukemia, with A498 renal, in the assay on MALME-3M melanoma, in the assay with HCC-2998 colon, in the assay on HCT-116 colon and in the assay on RPMI-8226 leukemia was > 100 µM throughout. Further, the TGI with KM12 colon, with OVCAR-3 ovarian, in the assay on UO-31 renal and in the assay with SN12C renal was > 100 µM each time.
For the molecule `CC1=C(CCC(C)NCc2ccc(OCCCN3CCCCC3)cc2)C(C)(C)CCC1` (stereo not given), the GI50 in the assay with SR leukemia is 0.221 µM; in the assay with A498 renal, 1.43 µM; in the assay on MALME-3M melanoma, 1.6 µM; in the assay with HCC-2998 colon it was 0.232 µM; in the assay on HCT-116 colon it was 1.53 µM; in the assay with RPMI-8226 leukemia, 2.29 µM. For the same molecule, the GI50 is 1.7 µM in the assay on KM12 colon, 1.79 µM with OVCAR-3 ovarian, 1.56 µM in the assay with UO-31 renal and 1.87 µM in the assay on SN12C renal. For the same molecule, the TGI in the assay on SR leukemia turned out to be 0.608 µM; in the assay on A498 renal, 2.95 µM; in the assay with MALME-3M melanoma, 3.29 µM; with HCC-2998 colon it was 0.612 µM; in the assay with HCT-116 colon, 3.13 µM; in the assay with RPMI-8226 leukemia, 5.36 µM. The TGI was 3.36 µM in the assay with KM12 colon, 4.07 µM with OVCAR-3 ovarian, 2.97 µM in the assay on UO-31 renal and 3.95 µM with SN12C renal.
For the molecule `COC(=O)C1=C(C)NC(C)=C(C(=O)OCC(C)C)C1c1ccccc1[N+](=O)[O-]` (stereo not given), the GI50 in the assay on SR leukemia was 2.53 µM; in the assay on A498 renal, 10.7 µM; in the assay with MALME-3M melanoma it was 4.47 µM; in the assay with HCC-2998 colon it was 6.18 µM; with HCT-116 colon, 3.02 µM; with RPMI-8226 leukemia, 3.25 µM. Moreover, the GI50 in the assay on KM12 colon was 2.94 µM; with OVCAR-3 ovarian it was 6.35 µM; in the assay with UO-31 renal it was 1.73 µM; in the assay with SN12C renal, 4.15 µM. For the same molecule, the TGI in the assay with SR leukemia was found to be 11.3 µM; with A498 renal it was 23.7 µM; with MALME-3M melanoma, 17.2 µM; with HCC-2998 colon, 22.4 µM; in the assay on HCT-116 colon, 12.1 µM; with RPMI-8226 leukemia it was 25.8 µM. The TGI is > 100 µM in the assay with KM12 colon, 19.6 µM with OVCAR-3 ovarian, 7.07 µM in the assay on UO-31 renal and 19.8 µM in the assay on SN12C renal.
